Experimental data from patent US20200000822A1, “METHODS OF TREATMENT FOR CANCER, STEROL HOMEOSTASIS, AND NEUROLOGICAL DISEASES” (BOARD OF REGENTS, THE UNIVERSITY OF TEXAS SYSTEM, priority 2017, published 2020).
“Also recorded” adds a separate entry of the source.

Experiments:
[1] = biological target: T1, human TMEM97 (Homo sapiens, UniProt Q5BJF2); experiment: ^3H DTG competition binding in Sf9 insect membranes overexpressing TMEM97; details: competition with 30 nM ^3H DTG
T1 construct: made in house; host or cells: Sf9 insect cells (baculovirus, pVL1392, BestBac)
T1 sequence (Q5BJF2 whole entry): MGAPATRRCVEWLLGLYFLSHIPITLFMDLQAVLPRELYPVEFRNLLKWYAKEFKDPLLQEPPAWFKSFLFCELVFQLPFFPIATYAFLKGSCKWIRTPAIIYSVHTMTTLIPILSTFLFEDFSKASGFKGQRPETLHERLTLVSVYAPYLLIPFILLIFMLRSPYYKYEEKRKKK
Experimental: For insect cell expression, human TMEM97 was cloned into the vector pVL1392, and baculovirus was prepared using the BestBac system (Expression Systems) in accordance with manufacturer's instructions. For large scale production, Sf9 insect cells were infected at a density of 4×10^6 cells/mL and then shaken at 27° C. for 60 hours prior to harvest.
(§1) Membranes were prepared from PC-12, MCF-7, Sf9, or Expi293 cells. In brief, adherent cells were washed with ice cold PBS or HBS and harvested with a cell scraper, while suspension cells were simply pelleted. Cell pellets were suspended in 20 mM HEPES pH 7.5, 2 mM magnesium chloride, and 1:100,000 (v:v) benzonase nuclease (Sigma Aldrich) and supplemented with cOmplete Mini, EDTA-free Protease Inhibitor Cocktail Tablets (Roche). Following dounce homogenization, the cells were centrifuged at 50,000×g for 20 minutes. The supernatant was discarded and the membranes were washed one more time with cold 50 mM Tris pH 8.0 containing cOmplete Mini, EDTA-free Protease Inhibitor Cocktail Tablets (Roche, 1 tablet per 50 mL buffer). The membranes were centrifuged once more at 50,000× for 20 minutes, and then resuspended in a variable volume of cold 50 mM Tris pH 8.0 with the same protease inhibitor cocktail. Protein content was assessed by DC protein assay (Bio-Rad) according to manufacturer's instructions. Membranes were aliquoted, flash frozen, and stored at −80° C. until use in the radioligand binding experiments described below.
1.8 μM (+)SKF-10,047 was included to block 1l receptor sites in all MCF-7 membranes binding assays and in Sf9 membranes when testing TMEM97 ligands. Reactions were incubated for 90 minutes at 37° C., and were then terminated by filtration through a glass fiber filter using a Brandel cell harvester. Glass fiber filters were soaked in 0.3% polyethylenimine for at least 30 minutes at room temperature prior to harvesting. All reactions were performed in triplicate using a 96-well block. After the membranes were transferred to the filters and washed, the filters were soaked in 5 mL Cytoscint scintillation fluid overnight and radioactivity was measured using a Beckman Coulter LS 6500 scintillation counter. Data were analyzed using software from Graphpad Prism. Ki values were computed directly without the use of the Cheng-Prusoff correction using the Graphpad Prism software.

[2] = biological target: sigma-2 receptor (Homo sapiens, UniProt Q5BJF2); experiment: ^3H DTG competition binding in MCF-7 cell membranes; details: competition with 30 nM ^3H DTG
Chain of sigma-2 receptor (Homo sapiens, UniProt Q5BJF2) (Q5BJF2 whole entry, species assumed): as the sequence (Q5BJF2 whole entry) above
Experimental: as §1, with “The membranes were centrifuged once more at 50,000× for 20 minutes, and then resuspended in a variable volume of cold 50 mM Tris pH 8.0 with the same protease inhibitor cocktail.” left out, “Membranes were aliquoted, flash frozen, and stored at −80° C. until use in the radioligand binding experiments described below.” left out
1.8 μM (+)SKF-10,047 was included to block 1l receptor sites in all MCF-7 membranes binding assays and in Sf9 membranes when testing TMEM97 ligands. […] After the membranes were transferred to the filters and washed, the filters were soaked in 5 mL Cytoscint scintillation fluid overnight and radioactivity was measured using a Beckman Coulter LS 6500 scintillation counter. Data were analyzed using software from Graphpad Prism. […]

[3] = biological target: T2, PGRMC1 (Homo sapiens, UniProt O00264); experiment: single-point ^3H DTG binding, HEK293 cells overexpressing PGRMC1; details: 10 nM ^3H DTG
T2 construct: mCardinal (behind the 2A skip peptide, reporter of transfection) (C, cleaved yes); expressed in transfected cells
T2 sequence (O00264 whole entry, species assumed): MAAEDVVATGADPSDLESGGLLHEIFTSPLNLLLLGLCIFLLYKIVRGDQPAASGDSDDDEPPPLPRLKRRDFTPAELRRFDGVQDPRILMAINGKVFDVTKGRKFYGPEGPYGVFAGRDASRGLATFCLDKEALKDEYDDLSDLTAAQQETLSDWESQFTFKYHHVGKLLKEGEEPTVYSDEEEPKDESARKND
Experimental: Eight selected hits from LC-MS/MS were cloned into a pTARGET vector (Promega), followed by a porcine teschovirus-1 2A skip peptide ([…] (SEQ ID NO: 3)) and by the fluorescent protein mCardinal40 to assess transfection efficiency. Plasmids were transfected into Expi293 cells (Thermo Fisher) according to manufacturer's instructions. After 36 hours, expression of each target protein was confirmed by flow cytometry analysis of mCardinal fluorescence levels. Receptor point mutants were generated by site-directed mutagenesis using KAPA polymerase (KAPA Biosystems), and resulting constructs were expressed in Expi293 cells as described above.
Membranes were prepared from PC-12, MCF-7, Sf9, or Expi293 cells. In brief, adherent cells were washed with ice cold PBS or HBS and harvested with a cell scraper, while suspension cells were simply pelleted. Cell pellets were suspended in 20 mM HEPES pH 7.5, 2 mM magnesium chloride, and 1:100,000 (v:v) benzonase nuclease (Sigma Aldrich) and supplemented with cOmplete Mini, EDTA-free Protease Inhibitor Cocktail Tablets (Roche). […] Protein content was assessed by DC protein assay (Bio-Rad) according to manufacturer's instructions. […]
Membrane radioligand binding assays were performed as described 41 with slight modifications. […] Radioactivity was measured by liquid scintillation counting.

[4] = system: Tmem97 mRNA; experiment: siRNA knockdown of Tmem97 in PC-12 cells, qPCR of mRNA; type: cell-based, Rattus norvegicus; details: 10 nM siRNA
Experimental: A pair of siRNA oligos were designed against Rattus norvegicus Tmem97 mRNA using the Stealth RNAi™ tool available through ThermoFisher Scientific. The sense strand for the siRNA was 5′-[…]-3′ (SEQ ID NO: 4), and the antisense strand was 5′-[…]-3′ (SEQ ID NO: 5). As a control, we used the AllStars Negative Control siRNA™ from Qiagen. For the transfection, 2.2×10^6 PC-12 cells suspended in 8.0 mL of DMEM with 10% FBS and 10 μg/mL of gentamicin were placed in a 10 cm dish and immediately transfected with a 2.0 mL solution containing 20 μL of Lipofectamine® RNAimax from ThermoFisher Scientific and 10 nM of either the control or Tmem97 siRNA. After 24 hours, the media was changed for fresh media, and the cells were transfected again in the same way. 48 hours after the first transfection, the cells were trypsinized and split 1:2 into two new 10 cm plates. On the 5th day after the first transfection, cells were harvested by trypsinization and centrifugation, and 10% were set aside for RNA extraction while 90% were used for binding analysis. […]
After preparation of the cDNA was complete, real-time quantitative PCR (qPCR) was performed on a QuantStudio 6 qPCR instrument at the Harvard Medical School Center for Molecular Interactions using PowerUp™ SYBR® Green Master Mix from Applied Biosystems Life Technologies. […] Fold differences in Tmem97 expression levels were calculated using the ΔΔCT method 43. […]

[5] = biological target: T3, sigma-2 receptor (Rattus norvegicus, UniProt Q5U3Y7); experiment: siRNA knockdown of Tmem97 in PC-12 cells, sigma-2 expression by saturating ^3H DTG binding; type: cell-based; details: compared with mRNA reduction
T3 construct: endogenous in cells; host or cells: PC-12 cells
T3 sequence (Q5U3Y7 1-176): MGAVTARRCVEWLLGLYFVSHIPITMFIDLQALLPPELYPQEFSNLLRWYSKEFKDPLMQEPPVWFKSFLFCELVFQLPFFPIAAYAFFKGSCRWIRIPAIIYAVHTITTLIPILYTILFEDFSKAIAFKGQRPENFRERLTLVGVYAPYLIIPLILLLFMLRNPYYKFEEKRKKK
Experimental: as §1, with “Cell pellets were suspended in 20 mM HEPES pH 7.5, 2 mM magnesium chloride, and 1:100,000 (v:v) benzonase nuclease (Sigma Aldrich) and supplemented with cOmplete Mini, EDTA-free Protease Inhibitor Cocktail Tablets (Roche).” left out, “-80°” for “−80°”, “below. Membrane radioligand binding assays were performed as described 41 with slight modifications. […] Samples were incubated at room temperature with shaking for 1.5 hours, at which time the reaction was terminated by the addition of ice-cold water. Samples were then applied to glass fiber filters (Merck Millipore) that had been pre-treated with 0.3% (v/v) polyethylenimine. […] Radioactivity was measured by liquid scintillation counting. […]” for “below.”

Compound: CC(C)=CCN1CCC2(C)c3cc(O)ccc3CC1C2C (single isomer, unassigned; (+)) [(+)-pentazocine]
- affinity of the ligand for TMEM97 compared with previously reported affinities [1]: essentially identical to previously report sigma-2 receptor binding affinities; also recorded: essentially identical to previously reported affinities

Compound: COc1cc2c(cc1OC)CN(CCc1ccc(NC(=O)c3cccc4c(=O)c5cccc(OC)c5[nH]c34)cc1)CC2 [Elacridar]
- affinity of the ligand for TMEM97 compared with previously reported affinities [1]: essentially identical to previously reported affinities
- binding affinity in MCF-7 cell membranes compared with Sf9 membranes overexpressing TMEM97 [2]: identical in both

Compound: COc1cccc2c1CCCC2CCCN1CCN(C2CCCCC2)CC1 (centres unmarked) [PB-28]
- affinity of the ligand for TMEM97 compared with previously reported affinities [1]: essentially identical to previously report sigma-2 receptor binding affinities; also recorded: essentially identical to previously reported affinities

Compound: C=CCN(C)CCCCCCOc1ccc(C(=O)c2ccc(Br)cc2)c(F)c1 [Ro 48-8071, (4-Bromophenyl)-[2-fluoro-4-[6-[methyl(prop-2-enyl)amino]hexoxy]phenyl]methanone]
- affinity of the ligand for TMEM97 compared with previously reported affinities [1]: essentially identical to previously reported affinities
- binding affinity in MCF-7 cell membranes compared with Sf9 membranes overexpressing TMEM97 [2]: identical in both

Compound: Cc1ccccc1NC(=N)Nc1ccccc1C [^3H DTG, ^3H 1,3-di-o-tolylguanidine]
- ^3H DTG binding [3]: did not lead to increased

Compound: O=C(CCCN1CCC(O)(c2ccc(Cl)cc2)CC1)c1ccc(F)cc1 [haloperidol]
- affinity of the ligand for TMEM97 compared with previously reported affinities [1]: essentially identical to previously report sigma-2 receptor binding affinities; also recorded: essentially identical to previously reported affinities

Compound: (+)-SKF-10,047
- affinity of the ligand for TMEM97 compared with previously reported affinities [1]: essentially identical to previously report sigma-2 receptor binding affinities; also recorded: essentially identical to previously reported affinities

Compound: siRNA: siRNA against Rattus norvegicus Tmem97 mRNA; sense strand 5′-CAACCUGUUGCGGUGGUACUCUAAG-3′ (SEQ ID NO: 4) (antisense CUUAGAGUACCACCGCAACAGGUUG; chemistry not given here)
- reduction of Tmem97 mRNA expression [4]: ~60%
- reduction in sigma-2 expression levels by saturating ^3H DTG binding [5]: near identical reduction
